{
  "source": "patent US11564907B2",
  "about": "“Methods and compositions for the treatment of retinopathy and other ocular diseases” (Lankenau Institute for Medical Research, priority 2014, dated 2023)",
  "origin": "cited, not measured here",
  "test_system": "allogeneic mouse concepti",
  "settings": "pregnant mice; Munn et al. (1998), Mellor et al. (2001)",
  "data": [
    {"smiles": "Cn1cc(C[C@H](N)C(=O)O)c2ccccc21", "note": "[1-methyl-tryptophan]", "values": [
      {"measurement": "rejection of allogeneic mouse concepti", "result": "could elicit T cell-dependent rejection of allogeneic mouse concepti"}
    ]}
  ]
}
